Data reported in ChEMBL document CHEMBL1131695, “Design and synthesis of 6-(6-D-ribitylamino-2,4-dihydroxypyrimidin-5-yl)-1-hexyl phosphonic acid, a potent inhibitor of lumazine synthase” (Bioorg Med Chem Lett, 1999).

Assay: Inhibitory activity against lumazine synthase beta-60 capsids from Bacillus subtilis

Row | SMILES | Ki [µM]
1 | O=P(O)(O)CCCCCCc1c(O)nc(O)nc1NC[C@H](O)[C@H](O)[C@H](O)CO | 109
2 | O=C(Nc1c(O)nc(O)nc1NC[C@H](O)[C@H](O)[C@H](O)CO)c1ccc(S(=O)(=O)O)cc1 | 360
3 | O=C(Nc1c(O)nc(O)nc1NC[C@H](O)[C@H](O)[C@H](O)CO)c1ccc(S(=O)(=O)F)cc1 | 200
4 | O=C(O)CCCC(=O)Nc1c(O)nc(O)nc1NC[C@H](O)[C@H](O)[C@H](O)CO | 430
5 | O=c1[nH]c(=O)c2nnn(C[C@H](O)[C@H](O)[C@H](O)CO)c2[nH]1 | 330
6 | O=c1[nH]c(=O)c2ncn(C[C@H](O)[C@H](O)[C@H](O)CO)c2[nH]1 | 470
